Source: the supplement of paper PMC10307832

Columns and labels:
Experiment in all cases: relative viability (nuclei count vs DMSO), 5 days (fraction); higher = more cells survive
PC-14 = tested on: PC-14
In short: (§1)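 Medians of duplicate plates are given as relative viability. That measure is the nuclei count in treated wells divided by the count in vehicle wells. Counts were taken on 4× images of lung cancer cell lines in 1536-well plates, 5 days after pin-tool dosing the day after seeding with one drug alone or a fixed anchor-drug dose plus five library-drug doses (not always all listed) in √10 steps.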

LCLC-103H = tested on: LCLC-103H
In short: as §1

NCI-H322M = tested on: NCI-H322M
In short: as §1

NCI-H2126 = tested on: NCI-H2126
In short: as §1

LXF-289 = tested on: LXF-289
In short: as §1

NCI-H1666 = tested on: NCI-H1666
In short: as §1

LU99A = tested on: LU99A
In short: as §1

EKVX = tested on: EKVX
In short: as §1

NCI-H23 = tested on: NCI-H23
In short: as §1

LK-2 = tested on: LK-2
In short: as §1

NCI-H2342 = tested on: NCI-H2342
In short: as §1

SW 900 = tested on: SW 900
In short: as §1

EPLC-272H = tested on: EPLC-272H
In short: as §1

SK-LU-1 = tested on: SK-LU-1
In short: as §1

NCI-H2405 = tested on: NCI-H2405
In short: as §1

NCI-H1975 = tested on: NCI-H1975
In short: as §1

EMC-BAC-2 = tested on: EMC-BAC-2
In short: as §1

SW 1573 = tested on: SW 1573
In short: as §1

ChaGo-K-1 = tested on: ChaGo-K-1
In short: as §1

RERF-LC-KJ = tested on: RERF-LC-KJ
In short: as §1

HCC-827 = tested on: HCC-827
In short: as §1

HCC-78 = tested on: HCC-78
In short: as §1

O=c1cc(-c2cccc3c2Sc2ccccc2S3)oc(N2CCOCC2)c1 + CC(=O)c1c(C)c2cnc(Nc3ccc(N4CCNCC4)cn3)nc2n(C2CCCC2)c1=O [Palbociclib] (partner 0.5 µM)
relative viability (PC-14; first compound 0.08 µM): 0.552 | relative viability (PC-14; first compound 0.253 µM): 0.746 | relative viability (PC-14; first compound 0.8 µM): 0.578 | relative viability (PC-14; first compound 2.53 µM): 0.46 | relative viability (PC-14; first compound 8 µM): 0.489 | relative viability (LCLC-103H; first compound 0.08 µM): 0.461 | relative viability (LCLC-103H; first compound 0.253 µM): 0.51 | relative viability (LCLC-103H; first compound 0.8 µM): 0.477 | relative viability (LCLC-103H; first compound 2.53 µM): 0.46 | relative viability (LCLC-103H; first compound 8 µM): 0.448 | relative viability (NCI-H322M; first compound 0.08 µM): 0.453 | relative viability (NCI-H322M; first compound 0.253 µM): 0.474 | relative viability (NCI-H322M; first compound 0.8 µM): 0.502 | relative viability (NCI-H322M; first compound 2.53 µM): 0.449 | relative viability (NCI-H322M; first compound 8 µM): 0.475 | relative viability (NCI-H2126; first compound 0.08 µM): 0.393 | relative viability (NCI-H2126; first compound 0.253 µM): 0.361 | relative viability (NCI-H2126; first compound 0.8 µM): 0.357 | relative viability (NCI-H2126; first compound 2.53 µM): 0.358 | relative viability (NCI-H2126; first compound 8 µM): 0.357 | relative viability (LXF-289; first compound 0.08 µM): 0.61 | relative viability (LXF-289; first compound 0.253 µM): 0.603 | relative viability (LXF-289; first compound 0.8 µM): 0.609 | relative viability (LXF-289; first compound 2.53 µM): 0.619 | relative viability (LXF-289; first compound 8 µM): 0.642 | relative viability (NCI-H1666; first compound 0.08 µM): 0.638 | relative viability (NCI-H1666; first compound 0.253 µM): 0.673 | relative viability (NCI-H1666; first compound 0.8 µM): 0.679 | relative viability (NCI-H1666; first compound 2.53 µM): 0.659 | relative viability (NCI-H1666; first compound 8 µM): 0.601 | relative viability (LU99A; first compound 0.08 µM): 0.413 | relative viability (LU99A; first compound 0.253 µM): 0.417 | relative viability (LU99A; first compound 0.8 µM): 0.491 | relative viability (LU99A; first compound 2.53 µM): 0.463 | relative viability (LU99A; first compound 8 µM): 0.449 | relative viability (EKVX; first compound 0.08 µM): 0.582 | relative viability (EKVX; first compound 0.253 µM): 0.657 | relative viability (EKVX; first compound 0.8 µM): 0.345 | relative viability (EKVX; first compound 2.53 µM): 0.321 | relative viability (EKVX; first compound 8 µM): 0.399 | relative viability (NCI-H23; first compound 0.08 µM): 0.57 | relative viability (NCI-H23; first compound 0.253 µM): 0.485 | relative viability (NCI-H23; first compound 0.8 µM): 0.498 | relative viability (NCI-H23; first compound 2.53 µM): 0.451 | relative viability (NCI-H23; first compound 8 µM): 0.451 | relative viability (LK-2; first compound 0.08 µM): 0.515 | relative viability (LK-2; first compound 0.253 µM): 0.8 | relative viability (LK-2; first compound 0.8 µM): 0.637 | relative viability (LK-2; first compound 2.53 µM): 0.767 | relative viability (LK-2; first compound 8 µM): 0.881 | relative viability (NCI-H2342; first compound 0.08 µM): 0.52 | relative viability (NCI-H2342; first compound 0.253 µM): 0.548 | relative viability (NCI-H2342; first compound 0.8 µM): 0.515 | relative viability (NCI-H2342; first compound 2.53 µM): 0.522 | relative viability (NCI-H2342; first compound 8 µM): 0.575 | relative viability (SW 900; first compound 0.253 µM): 0.557 | relative viability (SW 900; first compound 0.8 µM): 0.555 | relative viability (SW 900; first compound 2.53 µM): 0.492 | relative viability (SW 900; first compound 8 µM): 0.469 | relative viability (EPLC-272H; first compound 0.08 µM): 0.34 | relative viability (EPLC-272H; first compound 0.253 µM): 0.318 | relative viability (EPLC-272H; first compound 0.8 µM): 0.321 | relative viability (EPLC-272H; first compound 2.53 µM): 0.287 | relative viability (EPLC-272H; first compound 8 µM): 0.285 | relative viability (SK-LU-1; first compound 0.08 µM): 0.397 | relative viability (SK-LU-1; first compound 0.253 µM): 0.354 | relative viability (SK-LU-1; first compound 0.8 µM): 0.418 | relative viability (SK-LU-1; first compound 2.53 µM): 0.327 | relative viability (SK-LU-1; first compound 8 µM): 0.368 | relative viability (NCI-H2405; first compound 0.08 µM): 0.523 | relative viability (NCI-H2405; first compound 0.253 µM): 0.534 | relative viability (NCI-H2405; first compound 0.8 µM): 0.55 | relative viability (NCI-H2405; first compound 2.53 µM): 0.491 | relative viability (NCI-H2405; first compound 8 µM): 0.503 | relative viability (NCI-H1975; first compound 0.08 µM): 0.623 | relative viability (NCI-H1975; first compound 0.253 µM): 0.863 | relative viability (NCI-H1975; first compound 0.8 µM): 0.465 | relative viability (NCI-H1975; first compound 2.53 µM): 0.564 | relative viability (NCI-H1975; first compound 8 µM): 0.744 | relative viability (EMC-BAC-2; first compound 0.08 µM): 0.511 | relative viability (EMC-BAC-2; first compound 0.253 µM): 0.529 | relative viability (EMC-BAC-2; first compound 0.8 µM): 0.536 | relative viability (EMC-BAC-2; first compound 2.53 µM): 0.538 | relative viability (EMC-BAC-2; first compound 8 µM): 0.543 | relative viability (SW 1573; first compound 0.08 µM): 0.426 | relative viability (SW 1573; first compound 0.253 µM): 0.414 | relative viability (SW 1573; first compound 0.8 µM): 0.448 | relative viability (SW 1573; first compound 2.53 µM): 0.377 | relative viability (SW 1573; first compound 8 µM): 0.362 | relative viability (ChaGo-K-1; first compound 0.08 µM): 0.942 | relative viability (ChaGo-K-1; first compound 0.253 µM): 1.12 | relative viability (ChaGo-K-1; first compound 0.8 µM): 0.842 | relative viability (ChaGo-K-1; first compound 2.53 µM): 0.899 | relative viability (ChaGo-K-1; first compound 8 µM): 1.09 | relative viability (RERF-LC-KJ; first compound 0.08 µM): 1.11 | relative viability (RERF-LC-KJ; first compound 0.253 µM): 1.32 | relative viability (RERF-LC-KJ; first compound 0.8 µM): 1.08 | relative viability (RERF-LC-KJ; first compound 2.53 µM): 1.04 | relative viability (RERF-LC-KJ; first compound 8 µM): 0.971 | relative viability (HCC-827; first compound 0.08 µM): 0.479 | relative viability (HCC-827; first compound 0.253 µM): 0.493 | relative viability (HCC-827; first compound 0.8 µM): 0.444 | relative viability (HCC-827; first compound 2.53 µM): 0.37 | relative viability (HCC-827; first compound 8 µM): 0.442 | relative viability (HCC-78; first compound 0.08 µM): 0.506 | relative viability (HCC-78; first compound 0.253 µM): 0.458 | relative viability (HCC-78; first compound 0.8 µM): 0.427 | relative viability (HCC-78; first compound 2.53 µM): 0.417 | relative viability (HCC-78; first compound 8 µM): 0.487
